Data published in ChEMBL document CHEMBL5149994, “Anticancer potential of indirubins in medicinal chemistry: Biological activity, structural modification, and structure-activity relationship” (Eur J Med Chem, 2021).
Values after ≈ are worked out from the molar mass of the structure shown. Blank lines part the entries; values can stand above or below the molecule they belong to.

How the values were obtained:
[1] = test system: HepG2; experiment: Antiproliferative activity against human HepG2 cells assessed as cell growth inhibition; type: functional, cell-based
[2] = test system: SW480; experiment: Antiproliferative activity against human SW480 cells assessed as cell growth inhibition; type: functional, cell-based
[3] = test system: HL-60; experiment: Antiproliferative activity against human HL-60 cells assessed as cell growth inhibition; type: functional, cell-based
[4] = Antiproliferative activity against human Lu1 cells assessed as cell growth inhibition; type: functional, cell-based
[5] = test system: DU-145; experiment: Antiproliferative activity against human DU-145 cells assessed as cell growth inhibition by MTT assay; type: functional, cell-based
[6] = test system: SK-MEL-147; experiment: Cytotoxicity against human SK-MEL-147 cells assessed as cell growth inhibition measured after 24 hrs by WST-1 assay; type: functional, cell-based; conditions: SK-MEL-147, 24 h
[7] = test system: SK-MEL19; experiment: Cytotoxicity against human SK-MEL19 cells assessed as cell growth inhibition measured after 24 hrs by WST-1 assay; type: functional, cell-based; conditions: SK-MEL19, 24 h
[8] = Cytotoxicity against human SK-MEL-29 cells assessed as cell growth inhibition measured after 24 hrs by WST-1 assay; type: functional, cell-based; conditions: SK-MEL-29, 24 h
[9] = test system: SK-MEL-103; experiment: Cytotoxicity against human SK-MEL-103 cells assessed as cell growth inhibition measured after 24 hrs by WST-1 assay; type: functional, cell-based; conditions: SK-MEL-103, 24 h
[10] = test system: MCF7; experiment: Cytotoxicity against human MCF7 cells assessed as cell growth inhibition; type: functional, cell-based
[11] = test system: SW480; experiment: Antiproliferative activity against human SW480 cells assessed as cell growth inhibition measured after 96 hrs by MTT assay; type: functional, cell-based; conditions: SW480, 96 h
[12] = test system: CH1; experiment: Antiproliferative activity against human CH1 cells assessed as cell growth inhibition measured after 96 hrs by MTT assay; type: functional, cell-based; conditions: CH1, 96 h
[13] = test system: A549; experiment: Antiproliferative activity against human A549 cells assessed as cell growth inhibition measured after 96 hrs by MTT assay; type: functional, cell-based; conditions: A549, 96 h
[14] = test system: DU-145; experiment: Cytotoxicity against human DU-145 cells assessed as cell growth inhibition by MTT assay; type: functional, cell-based
[15] = test system: MCF7; experiment: Cytotoxicity against human MCF7 cells assessed as cell growth inhibition by MTT assay; type: functional, cell-based
[16] = test system: LNCaP; experiment: Cytotoxicity against human LNCaP cells assessed as cell growth inhibition by MTT assay; type: functional, cell-based
[17] = test system: PC-3; experiment: Cytotoxicity against human PC-3 cells assessed as cell growth inhibition by MTT assay; type: functional, cell-based
[18] = test system: LoVo; experiment: Cytotoxicity against human LoVo cells assessed as cell growth inhibition by MTT assay; type: functional, cell-based
[19] = target: CDK2/Cyclin A2 (Homo sapiens, UniProt P24941); experiment: Inhibition of CDK2/cyclin A (unknown origin); type: protein-complex assay
[20] = test system: NCI-H157; experiment: Cytotoxicity against human NCI-H157 cells assessed as cell growth inhibition at 100 uM by calcein-AM staining based flow cytometry analysis relative to control; type: functional; set-up: scale not given: the % may be the effect or the level left
[21] = Kinetic solubility of compound in PBS at pH 7.4; type: physicochemical; conditions: read-out: Kinetic_solubility
[22] = Inhibition of GST-tagged recombinant human CDK2/cyclin E expressed in Sf9 cells incubated for 10 mins in presence of [33P]-gamma ATP and ATP by scintillation counter method
[23] = test system: MCF7; experiment: Cytotoxicity against human MCF7 cells assessed as cell growth inhibition measured after 4 days by crystal violet staining based assay; type: functional; conditions: MCF7, 96 h
[24] = target: Cyclin-dependent kinase 5/CDK5 activator 1 (Homo sapiens, UniProt Q00535); experiment: Inhibition of CDK5/p35 (unknown origin); type: protein-complex assay
Cyclin-dependent kinase 5/CDK5 activator 1, sequence (Q00535 whole entry): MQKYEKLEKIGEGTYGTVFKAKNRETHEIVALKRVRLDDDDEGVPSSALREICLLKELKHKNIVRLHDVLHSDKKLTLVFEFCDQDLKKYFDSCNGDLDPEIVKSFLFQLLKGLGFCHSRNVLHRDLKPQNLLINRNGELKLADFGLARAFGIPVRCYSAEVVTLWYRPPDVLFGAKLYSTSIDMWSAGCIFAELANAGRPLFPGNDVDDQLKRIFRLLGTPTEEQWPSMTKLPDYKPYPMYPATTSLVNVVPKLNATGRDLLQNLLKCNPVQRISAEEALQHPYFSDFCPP
Cyclin-dependent kinase 5/CDK5 activator 1, sequence (Q15078 whole entry, further chain): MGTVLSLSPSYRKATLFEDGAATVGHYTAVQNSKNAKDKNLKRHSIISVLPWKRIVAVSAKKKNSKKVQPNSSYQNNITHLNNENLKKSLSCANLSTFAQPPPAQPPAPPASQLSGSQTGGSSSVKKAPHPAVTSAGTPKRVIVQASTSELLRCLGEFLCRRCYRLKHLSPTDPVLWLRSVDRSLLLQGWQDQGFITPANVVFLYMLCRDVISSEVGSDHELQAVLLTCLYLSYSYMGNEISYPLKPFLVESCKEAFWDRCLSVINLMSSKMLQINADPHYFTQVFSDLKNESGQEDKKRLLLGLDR

[25] = Inhibition of starfish oocyte CDK1/Cyclin B using histone H1 as substrate incubated for 10 mins in presence of [gamma-32P]ATP by scintillation counter analysis; set-up: species or system Marthasterias glacialis
[26] = test system: SNU-638; experiment: Antiproliferative activity against human SNU-638 cells assessed as cell growth inhibition measured after 24 hrs by MTT assay; type: functional, cell-based; conditions: SNU-638, 24 h
[27] = test system: A549; experiment: Antiproliferative activity against human A549 cells assessed as cell growth inhibition measured after 24 hrs by MTT assay; type: functional, cell-based; conditions: A549, 24 h
[28] = test system: HT-1080; experiment: Antiproliferative activity against human HT-1080 cells assessed as cell growth inhibition measured after 24 hrs by MTT assay; type: functional, cell-based; conditions: HT-1080, 24 h
[29] = Cytotoxicity against rat RK3E cells harboring RAS assessed as cell growth inhibition measured after 24 hrs by MTT assay; type: toxicity, cell-based
[30] = test system: SW480; experiment: Antiproliferative activity against human SW480 cells assessed as cell growth inhibition measured after 72 hrs by MTT assay; type: functional, cell-based; conditions: SW480, 72 h
[31] = test system: HL-60; experiment: Antiproliferative activity against human HL-60 cells assessed as cell growth inhibition measured after 72 hrs by MTT assay; type: functional, cell-based; conditions: HL-60, 72 h
[32] = Antiproliferative activity against human Lu1 cells assessed as cell growth inhibition measured after 72 hrs by MTT assay; type: functional, cell-based; conditions: Lu1, 72 h
[33] = test system: HepG2; experiment: Antiproliferative activity against human HepG2 cells assessed as cell growth inhibition measured after 72 hrs by MTT assay; type: functional, cell-based; conditions: HepG2, 72 h

Compound: Cc1cccc(Nc2nnc(SCC(O)CO/N=C3/C(=C4/C(=O)Nc5ccccc54)Nc4ccccc43)s2)c1C (centres undefined)
IC50 [1]: 15.3 µM
IC50 [2]: 16 µM
IC50 [3]: 12 µM
IC50 [4]: 19.1 µM

Compound: CN1C(=O)/C(=C2\Nc3ccc(Cl)cc3C2=O)c2cccnc21
IC50 [5]: 8 µM

Compound: C[C@@H]1O[C@H](N2C(=O)/C(=C3\Sc4ccccc4C3=O)c3ccccc32)[C@H](O)[C@H](O)[C@H]1O
IC50 [6]: 7.52 µM
IC50 [7]: 12 µM
IC50 [8]: 6.29 µM
IC50 [9]: 10.4 µM

Compound: C[C@@H]1O[C@@H](N2C(=O)/C(=C3\Nc4ccccc4C3=O)c3ccccc32)[C@H](O)[C@H](O)[C@H]1O
IC50 [10]: 0.76 µM

Compound: C[C@@H]1O[C@H](N2C(=O)/C(=C3\Nc4ccc(Cl)cc4C3=O)c3ccccc32)[C@H](O)[C@H](O)[C@H]1O
IC50 [10]: 6.96 µM

Compound: CCN1C(=O)/C(=C2\Nc3ccccc3\C2=N/O)c2ccccc21
IC50 [14]: 7.44 µM
IC50 [15]: 6.72 µM
IC50 [16]: 10.3 µM
IC50 [17]: 13.4 µM
IC50 [18]: 8.49 µM

Compound: O=C1Nc2ccc(OC(F)(F)F)cc2/C1=C1/[Se]c2ccccc2C1=O
Activity [20]: 17.4%

Compound: O=C1/C(=C2/C(=O)N([C@H]3O[C@H](CO)[C@@H](O)[C@H](O)[C@@H]3O)c3ccccc32)[Se]c2ccccc21
Activity [20]: 21.5%

Compound: C=CCC1(O)/C(=C2/C(=O)Nc3ccc(S(=O)(=O)N(C)CCN(C)C)cc32)Nc2ccccc21 (centres undefined)
solubility kinetic [21]: > 40 µg/mL
IC50 [22]: 0.04 µM
IC50 [23]: < 0.1 µM

Compound: C[C@@H]1O[C@H](N2C(=O)/C(=C3\Nc4ccccc4C3=O)c3ccccc32)[C@H](O)[C@H](O)[C@H]1O
IC50 [7]: 65.4 µM
IC50 [10]: 0.67 µM
IC50 [8]: 86.6 µM
IC50 [9]: 383 µM

Compound: CCCN1C(=O)/C(=C2\Nc3ccccc3\C2=N/O)c2ccccc21
IC50 [15]: 87.6 µM
IC50 [16]: 77.1 µM
IC50 [18]: 67.5 µM

Compound: CN(C)CCN(C)S(=O)(=O)c1ccc2c(c1)/C(=C1/Nc3ccccc3C1(C)O)C(=O)N2 (centres undefined)
solubility kinetic [21]: > 40 µg/mL
IC50 [22]: 0.07 µM
IC50 [23]: < 0.1 µM

Compound: O=C1Nc2ccccc2/C1=C1/Nc2ccccc2/C1=N\OCC(O)CSc1nnc(Nc2ccccc2)s1 (centres undefined)
IC50 [1]: 17.7 µM
IC50 [2]: 16.4 µM
IC50 [3]: 9.52 µM
IC50 [4]: 16.9 µM

Compound: CCCOc1ccccc1/C=C/C(=O)c1ccc(OCCn2cc(CN3C(=O)/C(=C4\Nc5ccccc5\C4=N/O)c4ccccc43)nn2)cc1O
IC50 [30]: 3.43 µM
IC50 [31]: 1.28 µM
IC50 [32]: 2.07 µM
IC50 [33]: 2.28 µM

More lines, main results first:

IC50 [11]: 2.5 µM
IC50 [13]: 13 µM
Compound: NCCO/N=C1/C(=C2/C(=O)Nc3ccccc32)Nc2ccc(O)cc21
IC50 [12]: 1.3 µM

IC50 [5]: 8 µM
Compound: CCN1C(=O)/C(=C2\Nc3ccccc3\C2=N/O)c2cccnc21

IC50 [19]: 8.8 µM
Compound: O=C1Nc2ccccc2/C1=C1/Nc2ncccc2C1=O

solubility kinetic [21]: 18 µg/mL (≈ 40.8 µM)
Compound: CN(C)CCN(C)S(=O)(=O)c1ccc2c(c1)/C(=C1/Nc3ccccc3/C1=N\O)C(=O)N2
IC50 [22]: 0.04 µM
IC50 [23]: < 0.1 µM

IC50 [24]: 0.065 µM
Compound: O=C1Nc2ccc(S(=O)(=O)O)cc2/C1=C1/Nc2ccccc2C1=O
IC50 [25]: 0.055 µM

IC50 [26]: 2.1 µM
IC50 [27]: 12.2 µM
IC50 [28]: 3.4 µM
Compound: O=C1Nc2ccc(F)cc2/C1=C1/Nc2ccccc2/C1=N\O
IC50 at 24 h [29]: 5.1 µM

solubility kinetic [21]: < 1 µg/mL
Compound: CN(C)S(=O)(=O)c1ccc2c(c1)/C(=C1/Nc3ccccc3C1=O)C(=O)N2
IC50 [22]: 0.04 µM
IC50 [23]: > 10 µM

IC50 [11]: 5.6 µM
IC50 [13]: 7.6 µM
Compound: CC(=O)O[C@H](CN)CC(=O)O/N=C1/C(=C2/C(=O)Nc3ccccc32)Nc2ccc(O)cc21
IC50 [12]: 1.8 µM
